Laboratory results reported in paper PMC9072872, “Structure-based design of nucleoside-derived analogues as sulfotransferase inhibitors” (RSC Advances, 2019).

Columns and labels:
TPST1 [1] = biological target: T1, TPST1 (Homo sapiens, UniProt O60507); experiment: Immunoblot of GST-CC4tide tyrosine sulfation by TPST1 (anti-sulfotyrosine antibody); format: biochemical; settings: compound 400 μM, GST-CC4-tide 1 μg, TPST1 0.2 μg, PAPS 5 μM, 15 min
T1 construct: Human TPST1 (residues Lys43-Leu360) enzyme was purified as a recombinant protein; made in house
T1 sequence (O60507 43-360): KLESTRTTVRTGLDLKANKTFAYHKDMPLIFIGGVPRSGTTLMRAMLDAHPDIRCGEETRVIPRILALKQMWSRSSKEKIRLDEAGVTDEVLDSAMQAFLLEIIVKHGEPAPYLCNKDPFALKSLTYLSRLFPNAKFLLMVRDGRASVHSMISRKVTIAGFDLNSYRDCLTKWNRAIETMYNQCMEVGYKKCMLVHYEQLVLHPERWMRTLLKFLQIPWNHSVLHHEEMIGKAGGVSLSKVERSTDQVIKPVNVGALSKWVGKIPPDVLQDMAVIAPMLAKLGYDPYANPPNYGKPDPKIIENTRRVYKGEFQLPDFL
Method: In order to further assess TPST1 inhibition by 2′-deoxy-PAP and compounds 1–14 using a complementary assay, immunoblotting of a TPST1 protein substrate (GST-CC4tide) was implemented with a monoclonal antibody that specifically recognises sulfotyrosine, using PAP as positive control (Fig. 5A). Compounds were screened at 400 μM in the assay. In common with the […] enzyme assay using a synthetic peptide, a broad range of inhibitory activities was observed.
Fig. 5 Immunological evaluation of TPST1 inhibition towards substrate and a Ser/Thr protein kinase counter-screen. (A) Immunoblots evaluating TPST1 sulfotransferase activity in the presence of a panel of PAP- and PAPS-mimetic compounds. […] After termination of the reaction using SDS-PAGE sample buffer, tyrosine sulfation was visualised by immunoblotting using a monoclonal sulfotyrosine antibody (top panel), with equal GST-CC4-tide and TPST1 loading confirmed using an antibody to detect 6xHis tagged proteins (bottom panel). (B) Enzymatic inhibition of PKA catalytic activity by a panel of PAP- and PAPS-mimetic compounds. PKA kinase (1 nM) was incubated with ATP (5 μM) in the presence of the appropriate nucleoside analogue (400 μM) for 30 min at 20 °C. PKA activity was calculated in real-time using fluorescently-labelled substrate peptide (2 μM) and normalised to DMSO (4% v/v) or buffer control.[77] Data in B is mean and SD of 3 individual experiments. Staurosporine is included at 40 μM as a generic inhibitor of kinase activity. […]
All standard laboratory biochemicals, were purchased from Sigma, and were of the highest analytical quality.
(§1) 5'-phosphosulfate, lithium salt hydrate, PAP (adenosine 3',5'-diphosphate, disodium salt), CoA (coenzymeA, sodium salt), ATP (adenosine 5’-triphosphate, disodium salt hydrate) were all purchased from Sigma and stored at -80 °C to minimise degradation.
(§2) Recombinant Protein Production and SDS-PAGE
(§3) Human TPST1 (residues Lys43-Leu360) enzyme was purified as a recombinant protein containing an N-terminal 6xHis tag as previously described. […]
pMAL-c2x plasmid encoding an N-terminal Maltose Binding Protein (MBP) affinity tag.6 Glutathione-S-transferase (GST) tagged CC4-tide ([…]) was cloned into pOPINJ (OPPF-UK) and […]
affinity purified from BL21 (DE3) pLysS E. coli using Glutathione-Sepharose 4B (GE Healthcare). 5 For SDS-PAGE, proteins were denatured in Laemmli sample buffer, heated at 95 °C for 5 min and then analysed by SDS-PAGE with 10% (v/v) polyacrylamide gels. Gels were stained and de-stained using a standard Coomassie Brilliant Blue protocol. To evaluate protein sulfation by immunoblotting, standard western blotting procedures were followed using monoclonal anti-sulfotyrosine ant ibody clone o-1C-A2 (Millipore) generated using a phage display procedure and sulfotyrosine selection peptide antigens7 in the presence of appropriate positive and negative controls, and modifications visua lised using ECL […]
Data was normalized […]
with respect to these control assays, with sulfate incorporation into the substr ate limited to ~ 20% to prevent depletion of PAPS and to ensure assay linearity. K m and IC50 values were determined by non-linear regression analysis with GraphPad Prism software. […]

TPST1 [2] = biological target: T1, TPST1; experiment: Microfluidic mobility shift sulfation assay, TPST1 (fluorescent CC4-tide substrate); format: biochemical; settings: for IC50: read-out: IC50 against TPST1
Method: (§4) Compounds were initially screened at 400 μM in the presence 20 nM HS2ST and 0.1 μM TPST1 respectively.
Fig. 4 Summary of enzymatic inhibition assays against HS2ST and TPST1. (A) Enzymatic analysis of HS2ST1 inhibition by a panel of PAP- and PAPS-mimetic compounds. […] HS2ST sulfotransferase activity was assayed using a fluorescent hexasaccharide substrate (2 μM) and normalised to DMSO (4% v/v) or buffer control. Data shown is mean and SD of 4 repeat experiments. (B) Full dose–response curves for selected compounds. […] HS2ST activity calculated as previously described. Data from two independent experiments are combined. (C) Enzymatic analysis of TPST1 inhibition by a panel of PAP- and PAPS-mimetic compounds. […] TPST1 activity was measured using fluorescently-labelled CC4-tide (2 μM) and normalised to DMSO (4% v/v) or buffer control. (D) Full dose–response curves for selected compounds. […] TPST1 activity was measured using CC4-tide and normalised to DMSO or buffer controls as previously described. The data shown is from duplicate experiments. […]
TPST1 peptide substrate (CC4-tide, 5-FAM-EDFED YEFDG-CONH2) was synthesised using solid-phase Fmoc chemistry (Pepceuticals, Leicester, UK). All standard laboratory biochemicals, were purchased from Sigma, and were of the highest analytical quality.
as §1, §2, §3
(§5) Microfluidics-Based Sulfation Assay
(§6) Non-radioactive microfluidic mobility shift peptide and carbohydrate sulfation assays were performed in solution with a 12-sipper chip coated with SR8 reagent and a Perkin Elmer EZ Reader II system 8 using an EDTA-based separation buffer and real-time kinetic evaluation of substrate sulfation. Pressure and voltage settings were adjusted manually to afford optimal separation of the sulfated product and non-sulfated substrate, with a sample (sip) volume of 20 nL, and total assay tim es appropriate for the experiment. The fluorophore tagged TPST1 peptide substrate and HS2ST1 glycan substrate where detected by the EZ Reader via LED-induced fluorescence.
(§7) Individual sulfation assays were assembled in a 384 well plate in a volume of 80 µL in the presence of […]
(§8) and 5 mM MgCl2. The degree of substrate sulfation was directly calculated using EZ Reader software by measuring the sulfo-product:non-sulfated substrate ratio at each time-point. The act ivity of the sulfotransferase enzymes in the presence of biochemicals and small molecule inhibitors was quantified in ‘kinetic mode’ by monitoring the amount of sulfated product generated over the assay time, relative to control assay with no additional inhibitor molecule (DMSO or buffer control). Data was normalized with respect to these control assays, with sulfate incorporation into the substr ate limited to ~ 20% to prevent depletion of PAPS and to ensure assay linearity. K m and IC50 values were determined by non-linear regression analysis with GraphPad Prism software. […]

HS2ST = biological target: T2, HS2ST (Gallus gallus, UniProt Q76KB1); experiment: Microfluidic mobility shift sulfation assay, HS2ST (fluorescent hexasaccharide substrate); format: biochemical, chicken; settings: read-out: IC50 against HS2ST
T2 construct: made in house; host or cells: E. coli Rosetta-gami (DE3)
T2 sequence (Q76KB1 1-356): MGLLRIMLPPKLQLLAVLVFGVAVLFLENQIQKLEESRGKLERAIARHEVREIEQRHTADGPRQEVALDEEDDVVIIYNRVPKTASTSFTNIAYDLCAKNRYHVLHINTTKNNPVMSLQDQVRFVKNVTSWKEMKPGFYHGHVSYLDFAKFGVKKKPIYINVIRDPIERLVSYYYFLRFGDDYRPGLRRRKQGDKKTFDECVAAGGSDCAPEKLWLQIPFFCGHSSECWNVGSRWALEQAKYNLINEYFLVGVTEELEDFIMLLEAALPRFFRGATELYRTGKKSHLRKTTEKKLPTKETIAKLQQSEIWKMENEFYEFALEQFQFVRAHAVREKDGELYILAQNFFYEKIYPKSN
Method: as §4
Fig. 4 Summary of enzymatic inhibition assays against HS2ST and TPST1. (A) Enzymatic analysis of HS2ST1 inhibition by a panel of PAP- and PAPS-mimetic compounds. […] HS2ST sulfotransferase activity was assayed using a fluorescent hexasaccharide substrate (2 μM) and normalised to DMSO (4% v/v) or buffer control. Data shown is mean and SD of 4 repeat experiments. (B) Full dose–response curves for selected compounds. […] HS2ST activity calculated as previously described. Data from two independent experiments are combined. (C) Enzymatic analysis of TPST1 inhibition by a panel of PAP- and PAPS-mimetic compounds. […] TPST1 activity was measured using fluorescently-labelled CC4-tide (2 μM) and normalised to DMSO (4% v/v) or buffer control. (D) Full dose–response curves for selected compounds. […] TPST1 activity was measured using CC4-tide and normalised to DMSO or buffer controls as previously described. The data shown is from duplicate experiments.
N-sulfated, fluorescein-tagged HS2ST1 hexasaccharide glycan substrate (GlcNS-GlcA- GlcNS-IdoA-GlcNS-GlcA-fluorescein, where S=sulfation) containing L-IdoA at the third residue from the reducing end (to which a linker and the fluorophore were conjugated) was purchased from GLY CAN therapeutics. TPST1 peptide substrate (CC4-tide, 5-FAM-EDFED YEFDG-CONH2) was synthesised using solid-phase Fmoc chemistry (Pepceuticals, Leicester, UK). All standard laboratory biochemicals, were purchased from Sigma, and were of the highest analytical quality.
as §1
Recombinant Protein Production and SDS-PAGE […]
as §5, §6, §7, §8

sulfotransferase = test system: sulfotransferase; design: method as in PMID 29934491, PMID 29934490; settings: non nucleoside-derived; cited from earlier work

| suppression of tyrosine sulfation (immunoblot) (TPST1 [1]) | IC50 (TPST1 [2]) [µM] | IC50 (HS2ST) [µM] | SMILES | other results |
| --- | --- | --- | --- | --- |
| partial suppression |  |  | Nc1ncnc2c1ncn2[C@H]1C[C@H](OCC(=O)NO)[C@@H](COCC(=O)NO)O1 [Compound 3] |  |
| complete suppression | 100 to 300 |  | COC(=O)COC1CC(n2cnc3c(N)ncnc32)OC1COP(=O)(O)O (stereo not drawn) [Compound 5] |  |
| complete suppression | 100 to 300 |  | COC(=O)COC1CC(n2cnc3c(N)ncnc32)OC1COP(=O)(O)OCc1ccccc1 (stereo not drawn) [Compound 6] |  |
| did not show any activity |  |  | Nc1ncnc2c1ncn2[C@H]1C[C@H](O)[C@@H](Cn2cc(C(=O)O)nn2)O1 [Compound 7] | inhibitory activity against TPST1 (TPST1 [2]; compound 400 μM, TPST1 0.1 μM, PAPS 5 μM): showed activity |
| partial suppression |  | 100 to 300 | Nc1ncnc2c1ncn2[C@H]1C[C@H](OP(=O)(O)O)[C@@H](Cn2cc(C(=O)O)nn2)O1 [Compound 8] |  |
| partial suppression |  | 100 to 300 | Nc1ncnc2c1ncn2[C@H]1C[C@H](O)[C@@H](Cn2cc(C(=O)OCc3ccccc3)nn2)O1 [Compound 9] |  |
|  | 1.5 | 2 | Nc1ncnc2c1ncn2[C@@H]1O[C@H](COP(=O)(O)O)[C@@H](OP(=O)(O)O)[C@H]1O [PAP, adenosine 3′,5′-diphosphate, reference compound] |  |
|  |  |  | CC(=O)c1c(O)c(C)c(O)c(Cc2c(O)c3c(c(C(=O)/C=C/c4ccccc4)c2O)OC(C)(C)C=C3)c1O [rottlerin] | sulfotransferase inhibitor potency (sulfotransferase): low/sub-micromolar |
|  |  |  | Cc1ccc(C(=O)Nc2ccc(S(=O)(=O)O)c3cc(S(=O)(=O)O)cc(S(=O)(=O)O)c23)cc1NC(=O)c1cccc(NC(=O)Nc2cccc(C(=O)Nc3cc(C(=O)Nc4ccc(S(=O)(=O)O)c5cc(S(=O)(=O)O)cc(S(=O)(=O)O)c45)ccc3C)c2)c1 [suramin] | sulfotransferase inhibitor potency (sulfotransferase): low/sub-micromolar |
